Read-outs that look alike come from different tables or passages of the source.
Tests used:
[1] = tested on: patients with mild/moderate asthma on ≧800 mcg of beclomethasone; test: Cilomalast/high dose inhaled corticosteroid (ICS) study; type: in vivo, human
Protocol: R, DB, PC, DR in patients with mild/moderate asthma on ≧800 mcg of beclomethasone
cilomalast® doses were 5, 10 and 15 mg twice daily for 4 weeks.
Primary endpoint: trough clinic FEV1.
Secondary endpoints: morning PEFR, symptoms, PEFR variability, evening PEFR, clinic PEFR, FEF25-75, FEF75, rescue medication used.

[2] = tested on: patients with mild/moderate asthma; test: Cilomalast/low dose inhaled corticosteroid (ICS) dose-ranging study; type: in vivo, human
Description: This was a phase IIB, randomised, placebo-controlled, dose-ranging study with a one-week single-blind placebo run-in, a 6-week double-blind treatment phase and a one-week follow-up phase in patients with mild/moderate asthma.
Study population: Male or female patients aged between 18 and 70 years, with mild to moderate asthma, who were not adequately controlled on low doses of inhaled corticosteroids (no greater than 500 mcg beclomethasone dipropionate/day or equivalent) were eligible. Patients were required to have a screening FEV1 of >50% and <80% predicted for height, age, sex and race and a 12% or greater reversibility after beta-2 agonist administration. Patients had to have a summary symptom score of 6 or more on 4 out of 7 days preceding the baseline visit to be randomised. The sample size was 300 evaluable patients.
cilomalast was dosed at 5 mg, 10 mg 15 mg twice daily for 6 weeks.
Subjects were on a median of 500 mcg of beclometbasone equivalent although the mean dose of ICS was 652 mcg.
Primary endpoint: change from baseline to endpoint in trough clinic expiratory volume in 1 second (FEV1), changes in clinic FEV1 every week and over a 4 hour period following first dose of double-blind medication.
The primary efficacy measure was defined as the change from baseline to endpoint in trough clinic forced expiratory volume in 1 second (FEV1). Changes in clinic FEV1 were also analysed at each week of the double-blind treatment phase and over a 4-hour period immediately following the first dose of double-blind medication. Secondary efficacy variables were use of inhaled/nebulised beta-2 agonist and overnight asthma symptoms. Tertiary efficacy variables were forced vital capacity (FVC), clinic peak expiratory flow rate (PEFR), forced expiratory flow at 25-75% (FEF25-75) and 75% (FEF75), domiciliary PEFR variability, domiciliary PEFR (morning and evening), summary symptom score (a composite score of overnight, morning and overall daytime asthma), morning asthma, overall daytime asthma, inhaled corticosteroid use, cough, wheeze, breathlessness/chest tightness, asthma exacerbation rates and global assessments by the physician and the patient.

asthma patients [3] = test: Allergen challenge studies (LAR); type: in vivo, human; conditions: Ariflo 15 mg bd
Description: Legend: Data on cilomalast was taken from the protocol analysis in asthma patients on <652 mcg of ICS. Data on montelukast (MT), budesonide (BDP) and both was taken from a single study in the Singulair SBA that examined the effect of Singulair relative to inhaled […] corticosteroids.

[4] = developed as an antidepressant; e.g. pyrosis, nausea and emesis; cited from earlier work
asthma patients [5] = conditions: comparators, cited from earlier work

In the case of `COc1ccc([C@]2(C#N)CC[C@@H](C(=O)O)CC2)cc1OC1CCCC1` [cilomalast, cis 4-cyano-4-(3-cyclopentyloxy-4-methoxyphenyl)cyclohexan-1-carboxylic acid], the “4 hour clinic FEV1, clinic FVC, PEFR” value ([1]; 10 mg BID) is reported as “numerically superior results”, the “improvement in trough FEV1, repeated measures analysis, patients on <800 mcg of ICS excluded” value ([1]; 10 mg BID, p=0.009) is reported as 0.16 L and the trough concentrations ([1]; 5, 10, 15 mg twice daily) is reported as “dose proportional”. For the same molecule, the “dose ordering for the primary endpoint (trough clinic FEV1)” value ([1]; 5, 10, 15 mg twice daily, 4 weeks) was “No dose ordering”, the “change in clinic trough FEV1, ITT analysis” value ([1]; any dose group (5, 10, 15 mg twice daily, 4 weeks)) was “No statistically significant change” and the “4 hour FEV1, domiciliary PEFR, FEF25-75, physician and patient global assessment scores” value ([2]; 15 mg BID) was “Corroborating support”. The “improvement in trough FEV1 at endpoint, ITT analysis, vs placebo” value ([2]; 15 mg BID, 6 weeks, on low dose ICS, p=0.062, no statistical improvement) was 0.16 L, the “improvement in trough FEV1, excluding patients on ICS doses >500 mcg of beclamethasone” value ([2]; 15 mg BID, p=0.033, significant) was 0.21 L and the “dose ordering of response for trough FEV1 at endpoint, ITT analysis” value ([2]; 5, 10, 15 mg twice daily for 6 weeks) was “dose-ordered”. The “comparison with Singulair when added to low dose ICS” value ([2]; placebo group also improved in the cilomalast study) was “outperformed Singulair”, the “% AUC of LAR (treatment effect)” value (asthma patients [3]) was 3.5% and the “% Max fall LAR (treatment effect)” value (asthma patients [3]) was 1.3%. The “% Protection AUC LAR” value (asthma patients [3]) was “NONE” and the “% Protection max fall LAR” value (asthma patients [3]) was “NONE”.

For `COc1ccc(C2CNC(=O)C2)cc1OC1CCCC1` (stereo not shown) [rolipram], the “side effects in clinical studies” value [4] is given as “produces gastrointestinal effects”.

For `O=C(Nc1cccc2c(=O)cc(-c3nnn[nH]3)oc12)c1ccc(OCCCCc2ccccc2)cc1` [Ultair], the “% Max fall LAR (treatment effect)” value (asthma patients [5]; ICS = 800 mcg budesonide) is listed as 10.7%, the “% Protection max fall LAR” value (asthma patients [5]; ICS = 800 mcg budesonide) is listed as 30.8% and the “% AUC of LAR (treatment effect)” value (asthma patients [5]) is listed as 42.4%. For the same molecule, the “% Protection AUC LAR” value (asthma patients [5]) was 42.6%.
